In ChEMBL document CHEMBL1138300, “Tris-azaaromatic quaternary ammonium salts: Novel templates as antagonists at nicotinic receptors mediating nicotine-evoked dopamine release” (Bioorg Med Chem Lett, 2007):

How the values were obtained:
[1] = target: Neuronal acetylcholine receptor subunit alpha-7 (Rattus norvegicus) (UniProt Q05941); assay: Displacement of [3H]MLA from alpha-7 nAChR in rat brain membrane at 100 uM; assay type: cell membranes
[2] = Antagonist activity at nAChR in rat striatal slices assessed as inhibition of nicotine-evoked [3H]dopamine release at 100 uM; assay type: functional; conditions: for inhibition at 100 µM: Rattus norvegicus
[3] = target: Neuronal acetylcholine receptor; alpha4/beta2 (Rattus norvegicus) (UniProt P09483+P12390); assay: Displacement of [3H]NIC from alpha-4-beta-2 nAChR in rat brain membrane at 100 uM; assay type: cell membranes
[4] = Antagonist activity at nAChR in rat striatal slices assessed as inhibition of nicotine-evoked [3H]dopamine release; assay type: functional

Chain of Neuronal acetylcholine receptor subunit alpha-7 (Rattus norvegicus) (Q05941 whole entry): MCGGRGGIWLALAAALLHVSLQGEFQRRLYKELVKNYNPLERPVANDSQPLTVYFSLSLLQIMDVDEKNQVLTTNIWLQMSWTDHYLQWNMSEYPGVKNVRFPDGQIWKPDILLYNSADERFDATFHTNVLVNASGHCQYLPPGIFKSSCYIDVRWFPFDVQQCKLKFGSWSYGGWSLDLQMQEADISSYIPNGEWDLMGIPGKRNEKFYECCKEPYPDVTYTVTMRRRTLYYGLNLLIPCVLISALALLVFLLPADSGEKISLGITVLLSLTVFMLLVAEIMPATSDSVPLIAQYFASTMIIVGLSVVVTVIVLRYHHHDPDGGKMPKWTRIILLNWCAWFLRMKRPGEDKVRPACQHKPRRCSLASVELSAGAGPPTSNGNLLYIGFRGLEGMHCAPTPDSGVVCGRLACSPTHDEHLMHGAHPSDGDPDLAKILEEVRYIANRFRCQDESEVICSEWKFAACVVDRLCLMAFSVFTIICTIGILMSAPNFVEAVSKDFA

Structure (SMILES) | inhibition [1] | inhibition at 100 µM [2] | inhibition [3] | IC50 [4] | Imax [2]
c1ccc2c[n+](CCCCCc3cc(CCCCC[n+]4ccc5ccccc5c4)cc(CCCCC[n+]4ccc5ccccc5c4)c3)ccc2c1 | 2.5% | 28% | 8.4% |  | 
Cc1cc[n+](CCCC#Cc2cc(C#CCCC[n+]3ccc(C)cc3)cc(C#CCCC[n+]3ccc(C)cc3)c2)cc1 | 0% | 32% | 21% |  | 
CCCCc1ccc[n+](CCCCCc2cc(CCCCC[n+]3cccc(CCCC)c3)cc(CCCCC[n+]3cccc(CCCC)c3)c2)c1 | 4.4% | 68% | 6.2% |  | 
C(#Cc1cc(C#CCCC[n+]2cccc(-c3ccccc3)c2)cc(C#CCCC[n+]2cccc(-c3ccccc3)c2)c1)CCC[n+]1cccc(-c2ccccc2)c1 | 39% | 29% | 15% |  | 
Cc1cc(C)c[n+](CCCCCc2cc(CCCCC[n+]3cc(C)cc(C)c3)cc(CCCCC[n+]3cc(C)cc(C)c3)c2)c1 | 6.5% | 39% | 11% |  | 
Cc1ccc[n+](CCCC#Cc2cc(C#CCCC[n+]3cccc(C)c3)cc(C#CCCC[n+]3cccc(C)c3)c2)c1.[Br-].[Br-].[Br-] | 0% | 40% | 10% | 0.2 nM | 67%
C(#Cc1cc(C#CCCC[n+]2ccc3ccccc3c2)cc(C#CCCC[n+]2ccc3ccccc3c2)c1)CCC[n+]1ccc2ccccc2c1 | 4.5% | 44% | 9.2% |  | 
CN1CCC[C@H]1c1ccc[n+](CCCCCc2cc(CCCCC[n+]3cccc([C@@H]4CCCN4C)c3)cc(CCCCC[n+]3cccc([C@@H]4CCCN4C)c3)c2)c1 | 7.9% | 26% | 81% |  | 
Cc1cc[n+](CCCCCc2cc(CCCCC[n+]3ccc(C)c(C)c3)cc(CCCCC[n+]3ccc(C)c(C)c3)c2)cc1C | 0.2% | 50% | 9.3% |  | 
Cc1ccc[n+](CCCCCCCCCCCC[n+]2cccc(C)c2)c1.[Br-].[Br-] |  |  |  | 2 nM | 68%
CN1CCC[C@H]1c1ccc[n+](CCCC#Cc2cc(C#CCCC[n+]3cccc([C@@H]4CCCN4C)c3)cc(C#CCCC[n+]3cccc([C@@H]4CCCN4C)c3)c2)c1.[Br-].[Br-].[Br-] | 4.2% | 59% | 44% |  | 50%
CCCCCCCCCCCC[n+]1cccc(C)c1.[I-] |  |  |  | 30 nM | 62%
CCCCc1ccc[n+](CCCC#Cc2cc(C#CCCC[n+]3cccc(CCCC)c3)cc(C#CCCC[n+]3cccc(CCCC)c3)c2)c1 | 30% | 28% | 6.8% |  | 
Cc1cc[n+](CCCCCc2cc(CCCCC[n+]3ccc(C)cc3)cc(CCCCC[n+]3ccc(C)cc3)c2)cc1 | 0% | 37% | 6% |  | 
c1ccc2c(c1)ccc[n+]2CCCCCc1cc(CCCCC[n+]2cccc3ccccc32)cc(CCCCC[n+]2cccc3ccccc32)c1 | 6.8% | 8% | 5.7% |  | 
Cc1cc[n+](CCCC#Cc2cc(C#CCCC[n+]3ccc(C)c(C)c3)cc(C#CCCC[n+]3ccc(C)c(C)c3)c2)cc1C | 1.8% | 18% | 4% |  | 
C(#Cc1cc(C#CCCC[n+]2cccc3ccccc32)cc(C#CCCC[n+]2cccc3ccccc32)c1)CCC[n+]1cccc2ccccc21 | 21% | 29% | 7% |  | 
Cc1cccc[n+]1CCCC#Cc1cc(C#CCCC[n+]2ccccc2C)cc(C#CCCC[n+]2ccccc2C)c1.[Br-].[Br-].[Br-] | 0% | 51% | 4.5% | 4 nM | 50%
Cc1cccc[n+]1CCCCCc1cc(CCCCC[n+]2ccccc2C)cc(CCCCC[n+]2ccccc2C)c1 | 0% | 27% | 8.6% |  | 
Cc1ccc[n+](CCCCCc2cc(CCCCC[n+]3cccc(C)c3)cc(CCCCC[n+]3cccc(C)c3)c2)c1.[Br-].[Br-].[Br-] | 1.2% | 58% | 14% | 2 nM | 50%
c1ccc(-c2ccc[n+](CCCCCc3cc(CCCCC[n+]4cccc(-c5ccccc5)c4)cc(CCCCC[n+]4cccc(-c5ccccc5)c4)c3)c2)cc1 | 19% | 6% | 14% |  | 
Cc1cc(C)c[n+](CCCC#Cc2cc(C#CCCC[n+]3cc(C)cc(C)c3)cc(C#CCCC[n+]3cc(C)cc(C)c3)c2)c1 | 0% | 27% | 8.9% |  | 
